Data: ChEMBL document CHEMBL1129198, “Synthesis and antibacterial activity of lipophilic carbapenems with anti-MRSA activity” (Bioorg Med Chem Lett, 1996)
Values after ≈ are worked out from the molar mass of the structure shown.

Assays:
Staphylococcus aureus [1] = experiment: Antibacterial activity against methicillin-resistant Staphylococcus aureus 607004.; format: functional
Enterococcus faecalis = experiment: Antibacterial activity against vancomycin-sensitive Enterococcus faecalis 683026.; format: functional
Streptococcus pneumoniae = experiment: Antibacterial activity against penicillin-resistant Streptococcus pneumoniae 671319; format: functional
[2] = tested on: Staphylococcus haemolyticus; experiment: Antibacterial activity against methicillin-resistant Staphylococcus haemolyticus 601117; format: functional
Staphylococcus aureus [3] = experiment: Antibacterial activity against methicillin-sensitive Staphylococcus aureus 601055.; format: functional
Staphylococcus aureus [4] = experiment: Antibacterial activity against methicillin-sensitive Staphylococcus aureus 601055.(grown in the presence of blood); format: functional
Staphylococcus aureus [5] = experiment: Antibacterial activity against methicillin-resistant Staphylococcus aureus 601053.; format: functional
Enterococcus faecium = experiment: Antibacterial activity against vancomycin-resistant Enterococcus faecium 628016.; format: functional
Staphylococcus aureus [6] = experiment: Compound was tested for its binding affinity against PBP2'' receptor in Staphylococcus aureus. Values taken from literature.; format: functional
[7] = In vitro binding affinity towards PBP2'' of Staphylococcus aureus using [14C]benzylpenicillin as radioligand
[8] = Compound was tested for its binding affinity against PBP2' receptor in Staphylococcus aureus.

SMILES | MIC (Staphylococcus aureus [1]) | MIC (Enterococcus faecalis) | MIC (Streptococcus pneumoniae) | MIC [2] | MIC (Staphylococcus aureus [3]) | MIC (Staphylococcus aureus [4]) | MIC (Staphylococcus aureus [5]) | MIC (Enterococcus faecium) | IC50 (Staphylococcus aureus [6]) | IC50 [7] | IC50 [8]
C[C@@H](O)[C@H]1C(=O)N2C(C(=O)O)=C(CSc3ccc4c(c3)CCC4=O)[C@H](C)[C@H]12 | 2 µg/mL (≈ 5.16 µM) | 1 µg/mL (≈ 2.58 µM) | 0.03 µg/mL (≈ 0.0774 µM) | 2 µg/mL (≈ 5.16 µM) | 0.016 µg/mL (≈ 0.0413 µM) | 0.008 µg/mL | 0.5 µg/mL (≈ 1.29 µM) | 0.5 µg/mL (≈ 1.29 µM) |  |  | 
C[C@@H](O)[C@H]1C(=O)N2C(C(=O)O)=C(COc3cccc4c3CCCC4=O)[C@H](C)[C@H]12 | 2 µg/mL (≈ 5.19 µM) | 2 µg/mL (≈ 5.19 µM) | 0.06 µg/mL (≈ 0.156 µM) | 4 µg/mL (≈ 10.4 µM) | 0.016 µg/mL (≈ 0.0415 µM) | 0.008 µg/mL | 0.25 µg/mL (≈ 0.649 µM) | 2 µg/mL (≈ 5.19 µM) |  |  | 
C[C@@H](O)[C@H]1C(=O)N2C(C(=O)O)=C(COc3cccc4c3C/C(=C\c3cccs3)C4=O)[C@H](C)[C@H]12 | 2 µg/mL (≈ 4.3 µM) | 2 µg/mL (≈ 4.3 µM) | 0.03 µg/mL (≈ 0.0644 µM) | 0.5 µg/mL (≈ 1.07 µM) | 0.008 µg/mL (≈ 0.0172 µM) | 0.008 µg/mL | 0.25 µg/mL (≈ 0.537 µM) | 4 µg/mL (≈ 8.59 µM) |  |  | 
C[C@@H](O)[C@H]1C(=O)N2C(C(=O)O)=C(COc3ccc4c(c3)CCC4)[C@H](C)[C@H]12 | 16 µg/mL (≈ 44.8 µM) | 64 µg/mL (≈ 179 µM) | 1 µg/mL (≈ 2.8 µM) | 16 µg/mL (≈ 44.8 µM) | 0.03 µg/mL (≈ 0.0839 µM) | 8 µg/mL | 1 µg/mL (≈ 2.8 µM) | 32 µg/mL (≈ 89.5 µM) |  |  | 
C[C@@H](O)[C@H]1C(=O)N2C(C(=O)O)=C(Sc3ccc4ccccc4c3)[C@H](C)[C@H]12 | 8 µg/mL (≈ 21.7 µM) | 16 µg/mL (≈ 43.3 µM) | 2 µg/mL (≈ 5.41 µM) | 8 µg/mL (≈ 21.7 µM) | 0.03 µg/mL (≈ 0.0812 µM) | 0.03 µg/mL | 1 µg/mL (≈ 2.71 µM) | 8 µg/mL (≈ 21.7 µM) |  |  | 
C[C@@H](O)[C@H]1C(=O)N2C(C(=O)O)=C(Sc3ccc(C#N)c4ccccc34)[C@H](C)[C@H]12 | 2 µg/mL (≈ 5.07 µM) | 8 µg/mL (≈ 20.3 µM) | 0.25 µg/mL (≈ 0.634 µM) | 1 µg/mL (≈ 2.54 µM) | 0.016 µg/mL (≈ 0.0406 µM) | 0.016 µg/mL | 0.5 µg/mL (≈ 1.27 µM) | 2 µg/mL (≈ 5.07 µM) |  |  | 
C[C@@H](O)[C@H]1C(=O)N2C(C(=O)O)=C(COc3cccc4c3CCC4=O)[C@H](C)[C@H]12 | 4 µg/mL (≈ 10.8 µM) | 1 µg/mL (≈ 2.69 µM) | 0.06 µg/mL (≈ 0.162 µM) | 8 µg/mL (≈ 21.5 µM) | 0.016 µg/mL (≈ 0.0431 µM) | 0.008 µg/mL | 0.12 µg/mL (≈ 0.323 µM) | 2 µg/mL (≈ 5.39 µM) |  |  | 
C[C@@H](O)[C@H]1C(=O)N2C(C(=O)[O-])=C(COc3ccc4nc(C[n+]5ccccc5)sc4c3)[C@H](C)[C@H]12 | 4 µg/mL (≈ 8.59 µM) | 0.5 µg/mL (≈ 1.07 µM) | 0.06 µg/mL (≈ 0.129 µM) | 2 µg/mL (≈ 4.3 µM) | 0.03 µg/mL (≈ 0.0644 µM) | 0.016 µg/mL | 0.25 µg/mL (≈ 0.537 µM) | 2 µg/mL (≈ 4.3 µM) |  |  | 
C[C@@H](O)[C@H]1C(=O)N2C(C(=O)[O-])=C(COc3ccc4cc(Cn5cc[n+](C)c5)ccc4c3)[C@H](C)[C@H]12 | 1 µg/mL (≈ 2.17 µM) | 2 µg/mL (≈ 4.33 µM) | 0.06 µg/mL (≈ 0.13 µM) | 2 µg/mL (≈ 4.33 µM) | 0.016 µg/mL (≈ 0.0347 µM) | 0.016 µg/mL | 0.5 µg/mL (≈ 1.08 µM) | 2 µg/mL (≈ 4.33 µM) |  |  | 
C[C@@H](O)[C@H]1C(=O)N2C(C(=O)O)=C(CSc3ccc4c(c3)OCCC4=O)[C@H](C)[C@H]12 | 1 µg/mL (≈ 2.48 µM) | 1 µg/mL (≈ 2.48 µM) | 0.03 µg/mL (≈ 0.0744 µM) | 1 µg/mL (≈ 2.48 µM) | 0.03 µg/mL (≈ 0.0744 µM) | 0.008 µg/mL | 1 µg/mL (≈ 2.48 µM) | 0.5 µg/mL (≈ 1.24 µM) |  |  | 
C[C@@H](O)[C@H]1C(=O)N2C(C(=O)O)=C(COc3ccc4cc(C(N)=O)ccc4c3)[C@H](C)[C@H]12 | 0.5 µg/mL (≈ 1.22 µM) | 2 µg/mL (≈ 4.87 µM) | 0.03 µg/mL (≈ 0.0731 µM) | 2 µg/mL (≈ 4.87 µM) | 0.008 µg/mL (≈ 0.0195 µM) | 0.016 µg/mL | 0.25 µg/mL (≈ 0.609 µM) | 1 µg/mL (≈ 2.44 µM) | 8 µg/mL (≈ 19.5 µM) | > 16 µg/mL | > 16 µg/mL
C[C@@H](O)[C@H]1C(=O)N2C(C(=O)O)=C(SCCc3ccc4ccccc4c3)[C@H](C)[C@H]12 | 32 µg/mL (≈ 80.5 µM) | 8 µg/mL (≈ 20.1 µM) | 0.5 µg/mL (≈ 1.26 µM) | 128 µg/mL (≈ 322 µM) | 0.13 µg/mL (≈ 0.327 µM) | 0.13 µg/mL | 8 µg/mL (≈ 20.1 µM) | 16 µg/mL (≈ 40.3 µM) |  |  | 
